The subject of the data set is CDNR4 cells. Description: Observation of cells during the adaptive response period after the initial exposure. Type of data set: cell-based, murine. The conditions noted are these: ENU 20 micrograms/ml 1 hour; resolved after 10 to 12 days. As for the experimental part:
The murine mammary epithelial cells designated CDNR4 were grown in their preferred growth medium (42% DMEM, 42% Hams F-12, 12% FBS, 1% 100×L-glutamine, 1% pen-strep, 0.5% to 1% bovine pituitary extract) until approximately 6 million cells were available. Cells were removed from the expansion flasks, counted, and replated at a rate of 500,000 cells per […] flask in growth medium. The flasks were assigned randomly to one of two groups: a vehicle-alone exposure (control group); an ENU-exposure (treated) group. For flasks of ENU-exposed cells, ENT was added to the growth medium to achieve a final concentration of 20 micrograms per milliliter. For group 1 flasks, a volume of growth medium equal to the volume of ENU was added to the flasks. The cells were exposed to this solution for 1 hour at 37° C.; at the end of this time the solution was removed, the cells were washed with PBS at 37° C., and the cells were re-fed with fresh growth medium.
This drop in pH recurred within six to 12 hours after re-feeding the cells with fresh growth medium. To reduce this problem, all cells (vehicle-exposed and ENU-exposed) were re-fed every day with medium that was buffered with HEPES at a concentration of 25 millimolar. […] This process of increased cell death among ENU-exposed cells resolved after approximately 10 to 12 days. […]

`CCN(N=O)C(N)=O` [ENU, ethylnitrosourea]: the “cell death among ENU-exposed flasks during adaptive response period” value is “slight non-significant increase in cell death”.

(Values after US20130040291A1, “Detection and Quantification of Cellular Stress Response Resolution Pathway Expression and Functionality and the Effects of Agents or Conditions Thereupon” (priority 2011, published 2013).)
